Results published in patent US11008295B2, “Compounds having antiinfective, antitumoral and antifungal activity” (priority 2017, dated 2021).
Like-named read-outs stand apart in the source and are kept apart here.

Experiments:
[1] = system: CAL33 cell line (head and neck); test: MTT assay, antitumor activity; assay type: cell-based
B. cereus = test: Kirby-Bauer disk diffusion susceptibility test; assay type: cell-based, Bacillus cereus; conditions: B. cereus; zone of inhibition; 200 μg/disc
Method: (§1) Bacterial strains, from clinical origin, were supplied by the National Center for Microbiology, Institute of Health Carlos III (Majadahonda, Madrid). They are detailed in Table I.
(§2) Bacterial cells suspension in sterile saline was prepared from a culture of 24-72 h, depending on bacterial species, in Mueller-Hinton Agar with 5% sheep blood. Each suspension was adjusted to a fixed size inoculum of 1-5×10^8 CFU/ml with a spectrophotometer (Ferraro, M J National Committee for Clinical Laboratory Standards. 2000).
(§3) Kirby-Bauer disk diffusion susceptibility test protocol was utilized to determine the sensitivity or resistance of pathogenic bacteria against the compounds and others antibiotics. The absence of growth around the disks is an indirect measure of the ability of this compound to inhibit an organism (Kirby, W. et al., Antibiotics Annu. 1956-1957:892). After 18 to 72 hours of incubation at […], with or without CO2, under aerobic or anaerobic conditions, depending on the bacterial species, halo of growth inhibition were obtained and evaluated.
(§4) Interpretation of susceptibility and resistance was based on the presence or absence of a zone of inhibition surrounding the disk. Kirby-Bauer disk diffusion susceptibility test is a common method which uses antibiotic-impregnated wafers to test whether bacteria are affected by antibiotics. The size of the zone of inhibition depends on how effective the antibiotic is at stopping the growth of the bacterium. A stronger antibiotic will create a larger zone, because a lower concentration of the antibiotic is enough to stop growth.

C. glabrata = test: Antifungal disk diffusion susceptibility test (CLSI M44); assay type: cell-based
Method: (§5) Filamentous fungi and yeasts strains, from clinical origin, were supplied by Microbiology Service from The Princess Hospital, Madrid. They are detailed in Table III.
(§6) Filamentous fungi and yeast cells suspensions in distilled water was prepared from a culture of 24-48 h, depending on species, in Sabouraud agar. Each suspension was adjusted to a fixed size inoculum of 1-5×10^8 CFU/ml with a spectrophotometer (Ferraro, M J National Committee for Clinical Laboratory Standards. 2000).
(§7) Antifungal susceptibility tests were developed following the standardized methodology detailed in document CLSI: M44-4: Method for Antifungal Disk diffusion susceptibility testing of yeasts consisting of disk diffusion on agar Muller-Hinton (supplemented with 2% glucose).

A. niger = test: as above; assay type: cell-based
Method: as §5, §6, §7

A. fumigatus = test: as above; assay type: cell-based
Method: as §5, §6, §7

C. lusitaniae = test: as above; assay type: cell-based
Method: as §5, §6, §7

C. tropicalis = test: as above; assay type: cell-based
Method: as §5, §6, §7

A. terreus = test: as above; assay type: cell-based
Method: as §5, §6, §7

A. flavus = test: as above; assay type: cell-based
Method: as §5, §6, §7

C. albicans = test: as above; assay type: cell-based
Method: as §5, §6, §7

C. guilliermondii = test: as above; assay type: cell-based
Method: as §5, §6, §7

M. chelonae = test: Kirby-Bauer disk diffusion susceptibility test; assay type: cell-based; conditions: M. chelonae; zone of inhibition; 200 μg/disc
Method: as §1, §2, §3, §4

E. coli = test: Kirby-Bauer disk diffusion susceptibility test; assay type: cell-based; conditions: E. coli; zone of inhibition; 200 μg/disc
Method: as §1, §2, §3, §4

P. aeruginosa = test: Kirby-Bauer disk diffusion susceptibility test; assay type: cell-based; conditions: P. aeruginosa; zone of inhibition; 200 μg/disc
Method: as §1, §2, §3, §4

M. fortuitum = test: Kirby-Bauer disk diffusion susceptibility test; assay type: cell-based; conditions: M. fortuitum; zone of inhibition; 200 μg/disc
Method: as §1, §2, §3, §4

E. faecalis = test: Kirby-Bauer disk diffusion susceptibility test; assay type: cell-based; conditions: E. faecalis; zone of inhibition; 200 μg/disc
Method: as §1, §2, §3, §4

N. cyriacigeorgica = test: Kirby-Bauer disk diffusion susceptibility test; assay type: cell-based; conditions: N. cyriacigeorgica; zone of inhibition; 200 μg/disc
Method: as §1, §2, §3, §4

E. faecium = test: Kirby-Bauer disk diffusion susceptibility test; assay type: cell-based; conditions: E. faecium; zone of inhibition; 200 μg/disc
Method: as §1, §2, §3, §4

S. aureus = test: Kirby-Bauer disk diffusion susceptibility test; assay type: cell-based; conditions: S. aureus; zone of inhibition; 200 μg/disc
Method: as §1, §2, §3, §4

S. epidermidis = test: Kirby-Bauer disk diffusion susceptibility test; assay type: cell-based; conditions: S. epidermidis; zone of inhibition; 200 μg/disc
Method: as §1, §2, §3, §4

M. abscessus = test: Kirby-Bauer disk diffusion susceptibility test; assay type: cell-based, Mycobacterium abscessus; conditions: M. abscessus; zone of inhibition; 200 μg/disc
Method: as §1, §2, §3, §4

HIV = test: microbe, parasite or virus in culture; assay type: cell-based; conditions: for safety index: anti-HIV activity/toxicity profile, MT-2 cells
Source text: Assessment of in vitro antiviral activity is usually performed to estimate parameters of antiviral potency and efficacy represented by the percentage of inhibition of HIV activity or IC50. The assay utilized is based on the use of recombinant viruses in which the nef gene, […] for in vitro HIV replication, has been replaced by a Renilla reporter gene so that viral replication can be quantified directly (Garcia-Perez J et al, J Med Virol. 2007 February; 79(2):127-37). The assay was performed infecting MT-2 cells or PHA-activated PBMCs/IL-2 with viral supernatants obtained previously. The study was development in AIDS Immunopathology Unit, National Center of Microbiology, Institute of Health Carlos III, Majadahonda, Madrid, Spain.
All data are expressed as percentage relative to a control with DMSO at the same concentration. Antiviral activity and toxicity curves were performed to the compound at different concentrations.

C. parapsilopsis = test: Antifungal disk diffusion susceptibility test (CLSI M44); assay type: cell-based, C. parapsilosis
Method: as §5, §6, §7

N. carnea = test: Kirby-Bauer disk diffusion susceptibility test; assay type: cell-based, Nocardia carnea; conditions: N. carnea; zone of inhibition; 200 μg/disc
Method: as §1, §2, §3, §4

HT29 cell line (colon) = test: MTT assay, antitumor activity; assay type: cell-based
T. pulmonis = test: Kirby-Bauer disk diffusion susceptibility test; assay type: cell-based, Tsukamurella pulmonis; conditions: T. pulmonis; zone of inhibition; 200 μg/disc
Method: as §1, §2, §3, §4

[2] = Cellular viability (CellTiter Glo) in parallel to the anti-HIV assay; assay type: cell-based; conditions: human; concentration required to kill 50% of cells; MT-2 cells; read-out: CC50 VIH MT-2
Method: All assays for assessing anti-HIV activity were taken in parallel to determine cellular viability of the culture in the presence or absence of different concentrations of the isolated molecule. It was followed exactly the same methodology as in the anti-HIV assay except with the addition of complete DMEM medium instead of supernatant viral, in the same proportion, and the detection of the viability was performed with the viability detection kit CellTiter Glo (Promega), following manufacturer instructions. Viability is directly proportional to the luciferase activity obtained. All data are expressed as percentage relative to a control with DMSO at the same concentration. Antiviral activity and toxicity curves were performed to the compound at different concentrations.

MCF7 cell line (breast) = test: MTT assay, antitumor activity; assay type: cell-based
A. baumannii = test: Kirby-Bauer disk diffusion susceptibility test; assay type: cell-based; conditions: A. baumannii; zone of inhibition; 200 μg/disc
Method: as §1, §2, §3, §4

[3] = Human immunodeficiency virus 1, MT2
[4] = Human immunodeficiency virus 1, MT2, read-out: IC50 VIH MT-2

Row | Compound | Activity (mm), 200 μg/disc (B. cereus) [mm] | Activity (mm), 200 μg/disc (C. glabrata) [mm] | Activity (mm), 200 μg/disc (A. niger) [mm] | Activity (mm), 200 μg/disc (A. fumigatus) [mm] | Activity (mm), 200 μg/disc (C. lusitaniae) [mm] | Activity (mm), 200 μg/disc (C. tropicalis) [mm] | Activity (mm), 200 μg/disc (A. terreus) [mm] | Activity (mm), 200 μg/disc (A. flavus) [mm] | Activity (mm), 200 μg/disc (C. albicans) [mm] | Activity (mm), 200 μg/disc (C. guilliermondii) [mm] | Activity (mm), 200 μg/disc (M. chelonae) [mm] | Activity (mm), 200 μg/disc (E. coli) [mm] | Activity (mm), 200 μg/disc (P. aeruginosa) [mm] | Activity (mm), 200 μg/disc (M. fortuitum) [mm] | Activity (mm), 200 μg/disc (N. cyriacigeorgica) [mm] | Activity (mm), 200 μg/disc (S. aureus) [mm] | Activity (mm), 200 μg/disc (S. epidermidis) [mm] | Activity (mm), 200 μg/disc (M. abscessus) [mm] | IC50 (HIV; [3]) [nM] | IC50 (HIV; [4]) [nM] | other results
1 | CCCCCC1=NN(C(=O)CCOC(=O)CCC(=O)O)OC(CCCCC)C1 (centres unmarked) [DOXA-1] | 36 | 30 | 18 | 15 | 38 | 30 | 18 | 20 | 25 | 38 | 34 | 9 | 9 | 30 | 35 | 20 | 22 | 32 | 130 | 130 | Inhibition of cell line ([1]; 750 nM): moderate inhibition; Activity (mm), 200 μg/disc (E. faecalis): 34 mm; Activity (mm), 200 μg/disc (E. faecium): 34 mm; safety index (HIV): more than 60; Activity (mm), 200 μg/disc (C. parapsilopsis): 30 mm; Activity (mm), 200 μg/disc (N. carnea): 40 mm; Inhibition of cell line (HT29 cell line (colon); 750 nM): moderate inhibition; Activity (mm), 200 μg/disc (T. pulmonis): 34 mm; CC50 [2]: 8200 nM
2 | CCCCCC1=NN(C(=O)CCOC(C)=O)OC(CCCCC)C1 (centres unmarked) [DOXA-2] | 20 | 18 | 40 | 30 | 20 | 20 | 40 | 38 | 18 | 28 | 30 | 9 | 9 | 25 | 26 | 10 | 10 | 25 | 84 | 84 | Concentration at which proliferation was inhibited (MCF7 cell line (breast)): 250 nM; Concentration of optimal inhibition [1]: 100 nM; Concentration at which proliferation was inhibited ([1]; 10-750 nM, 24, 48 and 72 hours): 50 nM; Activity (mm), 200 μg/disc (A. baumannii): 9 mm; safety index (HIV): about 100; Activity (mm), 200 μg/disc (C. parapsilopsis): 18 mm; Activity (mm), 200 μg/disc (N. carnea): 25 mm; Concentration of best inhibition (HT29 cell line (colon)): 50 nM; Activity (mm), 200 μg/disc (T. pulmonis): 41 mm; CC50 [2]: 7720 nM
